From PubChem BioAssay AID1918956 (Molecular Pharmacology Branch, DTP, NCI, 2023)
pIC50: −log10 of the molar value.

System: OVCAR-5 complex spheroids, viability
Assay: Anticancer human tumor OVCAR-5 cell line growth inhibition;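 also: spheroids exposed to agents for seven days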;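 as to viability, T/C: 100% = DMSO vehicle control wells viability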
Details: for pIC50: curve of first compound; for viability, T/C: stronger effect = lower value
How it was run: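 Drug combinations with the LSD1 inhibitor iadademstat tested on tumor cells co-cultured as spheroids with endothelial cells and mesenchymal stem cells. Concentrations descended in half-log increments from clinical Cmax or 10 microM.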

[1] = second compound 0.1 µM, first compound 0.000949 µM
[2] = second compound 0.1 µM, first compound 0.003 µM
[3] = second compound 0.1 µM, first compound 0.00949 µM
[4] = second compound 0.1 µM, first compound 0.03 µM
[5] = second compound 0.1 µM, first compound 0.0949 µM
[6] = second compound 0.1 µM, first compound 0.3 µM
[7] = second compound 0.316 µM, first compound 0.000949 µM
[8] = second compound 0.316 µM, first compound 0.003 µM
[9] = second compound 0.316 µM, first compound 0.00949 µM
[10] = second compound 0.316 µM, first compound 0.03 µM
[11] = second compound 0.316 µM, first compound 0.0949 µM
[12] = second compound 0.316 µM, first compound 0.3 µM
[13] = second compound 1 µM, first compound 0.000949 µM
[14] = second compound 1 µM, first compound 0.003 µM
[15] = second compound 1 µM, first compound 0.00949 µM
[16] = second compound 1 µM, first compound 0.03 µM
[17] = second compound 1 µM, first compound 0.0949 µM
[18] = second compound 1 µM, first compound 0.3 µM
[19] = second compound 3.16 µM, first compound 0.000949 µM
[20] = second compound 3.16 µM, first compound 0.003 µM
[21] = second compound 3.16 µM, first compound 0.00949 µM
[22] = second compound 3.16 µM, first compound 0.03 µM
[23] = second compound 3.16 µM, first compound 0.0949 µM
[24] = second compound 3.16 µM, first compound 0.3 µM
[25] = second compound 10 µM, first compound 0.000949 µM
[26] = second compound 10 µM, first compound 0.003 µM
[27] = second compound 10 µM, first compound 0.00949 µM
[28] = second compound 10 µM, first compound 0.03 µM
[29] = second compound 10 µM, first compound 0.0949 µM
[30] = second compound 10 µM, first compound 0.3 µM

Which results are given for `CC[C@@]1(O)C(=O)OCc2c1cc1n(c2=O)Cc2cc3c(CN(C)C)c(O)ccc3nc2-1` + NC1CCC(NC2CC2c2ccccc2)CC1?
pIC50 (second compound 0.1 µM): 8.25; pIC50 (second compound 0.316 µM): 7.96; pIC50 (second compound 1 µM): 7.95; pIC50 (second compound 3.16 µM): 7.92; pIC50 (second compound 10 µM): 8.00; viability, T/C (second compound 0.1 µM, first compound 0.000316 µM): 103%; viability, T/C (second compound 0.1 µM, first compound 0.001 µM): 105%; viability, T/C (second compound 0.1 µM, first compound 0.00316 µM): 58.8%; viability, T/C (second compound 0.1 µM, first compound 0.01 µM): 50.2%; viability, T/C (second compound 0.1 µM, first compound 0.0316 µM): 48%; viability, T/C (second compound 0.1 µM, first compound 0.1 µM): 23.4%; viability, T/C (second compound 0.316 µM, first compound 0.000316 µM): 112%; viability, T/C (second compound 0.316 µM, first compound 0.001 µM): 97.7%; viability, T/C (second compound 0.316 µM, first compound 0.00316 µM): 56.5%; viability, T/C (second compound 0.316 µM, first compound 0.01 µM): 49.8%; viability, T/C (second compound 0.316 µM, first compound 0.0316 µM): 50%; viability, T/C (second compound 0.316 µM, first compound 0.1 µM): 24%; viability, T/C (second compound 1 µM, first compound 0.000316 µM): 105%; viability, T/C (second compound 1 µM, first compound 0.001 µM): 93.3%; viability, T/C (second compound 1 µM, first compound 0.00316 µM): 56.9%; viability, T/C (second compound 1 µM, first compound 0.01 µM): 51.2%; viability, T/C (second compound 1 µM, first compound 0.0316 µM): 47.7%; viability, T/C (second compound 1 µM, first compound 0.1 µM): 26.7%; viability, T/C (second compound 3.16 µM, first compound 0.000316 µM): 109%; viability, T/C (second compound 3.16 µM, first compound 0.001 µM): 98.5%; viability, T/C (second compound 3.16 µM, first compound 0.00316 µM): 62.4%; viability, T/C (second compound 3.16 µM, first compound 0.01 µM): 51.3%; viability, T/C (second compound 3.16 µM, first compound 0.0316 µM): 49.3%; viability, T/C (second compound 3.16 µM, first compound 0.1 µM): 28.2%; viability, T/C (second compound 10 µM, first compound 0.000316 µM): 91.1%; viability, T/C (second compound 10 µM, first compound 0.001 µM): 85.5%; viability, T/C (second compound 10 µM, first compound 0.00316 µM): 51.8%; viability, T/C (second compound 10 µM, first compound 0.01 µM): 49.3%; viability, T/C (second compound 10 µM, first compound 0.0316 µM): 48.7%; viability, T/C (second compound 10 µM, first compound 0.1 µM): 27.7%

What does the source list for `CCc1c2c(nc3ccc(O)cc13)-c1cc3c(c(=O)n1C2)COC(=O)[C@]3(O)CC` + NC1CCC(NC2CC2c2ccccc2)CC1?
pIC50 (second compound 0.1 µM): > 9.02; pIC50 (second compound 0.316 µM): > 9.02; pIC50 (second compound 1 µM): > 9.02; pIC50 (second compound 3.16 µM): > 9.02; pIC50 (second compound 10 µM): > 9.02; viability, T/C [1]: 36.5%; viability, T/C [2]: 20.8%; viability, T/C [3]: 9.21%; viability, T/C [4]: 4.18%; viability, T/C [5]: 1.08%; viability, T/C [6]: 0.71%; viability, T/C [7]: 37%; viability, T/C [8]: 21.9%; viability, T/C [9]: 10.2%; viability, T/C [10]: 5.04%; viability, T/C [11]: 1.52%; viability, T/C [12]: 0.83%; viability, T/C [13]: 39.9%; viability, T/C [14]: 25.3%; viability, T/C [15]: 11.1%; viability, T/C [16]: 5.17%; viability, T/C [17]: 1.3%; viability, T/C [18]: 0.78%; viability, T/C [19]: 41.6%; viability, T/C [20]: 24.6%; viability, T/C [21]: 12.8%; viability, T/C [22]: 5.77%; viability, T/C [23]: 1.49%; viability, T/C [24]: 0.71%; viability, T/C [25]: 41%; viability, T/C [26]: 25.4%; viability, T/C [27]: 12.4%; viability, T/C [28]: 5.97%; viability, T/C [29]: 1.81%; viability, T/C [30]: 2.3%

What does the source list for `COc1cc(C2c3cc4c(cc3C(OC3OC5COC(C)OC5C(O)C3O)C3COC(=O)C23)OCO4)cc(OC)c1O` (stereo not given) + NC1CCC(NC2CC2c2ccccc2)CC1?
pIC50 (second compound 0.1 µM): 6.08; pIC50 (second compound 0.316 µM): 6.12; pIC50 (second compound 1 µM): 6.05; pIC50 (second compound 3.16 µM): 6.13; pIC50 (second compound 10 µM): 6.15; viability, T/C [3]: 113%; viability, T/C [4]: 105%; viability, T/C [5]: 100%; viability, T/C [6]: 73.5%; viability, T/C (second compound 0.1 µM, first compound 0.949 µM): 45.6%; viability, T/C (second compound 0.1 µM, first compound 3 µM): 41.4%; viability, T/C [9]: 106%; viability, T/C [10]: 106%; viability, T/C [11]: 100%; viability, T/C [12]: 71%; viability, T/C (second compound 0.316 µM, first compound 0.949 µM): 43.6%; viability, T/C (second compound 0.316 µM, first compound 3 µM): 43.9%; viability, T/C [15]: 98.7%; viability, T/C [16]: 106%; viability, T/C [17]: 103%; viability, T/C [18]: 76.7%; viability, T/C (second compound 1 µM, first compound 0.949 µM): 50%; viability, T/C (second compound 1 µM, first compound 3 µM): 44.2%; viability, T/C [21]: 99.9%; viability, T/C [22]: 105%; viability, T/C [23]: 103%; viability, T/C [24]: 70.9%; viability, T/C (second compound 3.16 µM, first compound 0.949 µM): 42.8%; viability, T/C (second compound 3.16 µM, first compound 3 µM): 45.4%; viability, T/C [27]: 89.4%; viability, T/C [28]: 93%; viability, T/C [29]: 82.9%; viability, T/C [30]: 67.7%; viability, T/C (second compound 10 µM, first compound 0.949 µM): 42.5%; viability, T/C (second compound 10 µM, first compound 3 µM): 40.9%

With `Nc1ccn(C2OC(CO)C(O)C2(F)F)c(=O)n1` (stereo not given) + NC1CCC(NC2CC2c2ccccc2)CC1 as the compound, how does the pIC50 (second compound 0.1 µM) read?
The pIC50 was over 9.02.

What about the pIC50 (second compound 0.316 µM) of the same compound?
The pIC50 was over 9.02.

What about the pIC50 (second compound 1 µM) of the same compound?
The pIC50 was over 9.02.

What about the pIC50 (second compound 3.16 µM) of the same compound?
The pIC50 was over 9.02.

What about the pIC50 (second compound 10 µM) of the same compound?
Its pIC50 is over 9.02.

What about the viability, T/C [1] of the same compound?
The viability, T/C was 27.8%.

What about the viability, T/C [2] of the same compound?
Its viability, T/C is 29%.

What about the viability, T/C [3] of the same compound?
Its viability, T/C is 30.3%.

What about the viability, T/C [4] of the same compound?
Its viability, T/C is 31.4%.

And the viability, T/C [5]?
The viability, T/C was 30.7%.

What about the viability, T/C [6] of the same compound?
Its viability, T/C is 28.6%.

What about the viability, T/C [7] of the same compound?
Its viability, T/C is 29.5%.

What about the viability, T/C [8] of the same compound?
Its viability, T/C is 30.3%.

What about the viability, T/C [9] of the same compound?
The viability, T/C was 31%.

What about the viability, T/C [10] of the same compound?
Its viability, T/C is 32.4%.

What about the viability, T/C [11] of the same compound?
Its viability, T/C is 30.8%.

And the viability, T/C [12]?
The viability, T/C was 30.6%.

What about the viability, T/C [13] of the same compound?
The viability, T/C was 32.8%.

What about the viability, T/C [14] of the same compound?
The viability, T/C was 33.5%.

What about the viability, T/C [15] of the same compound?
The viability, T/C was 34.3%.

And the viability, T/C [16]?
Its viability, T/C is 33.2%.

And the viability, T/C [17]?
Its viability, T/C is 32.7%.

What about the viability, T/C [18] of the same compound?
The viability, T/C was 31.2%.

And the viability, T/C [19]?
Its viability, T/C is 32.8%.

What about the viability, T/C [20] of the same compound?
Its viability, T/C is 34.4%.

What about the viability, T/C [21] of the same compound?
Its viability, T/C is 35.5%.

And the viability, T/C [22]?
The viability, T/C was 36.3%.

And the viability, T/C [23]?
The viability, T/C was 33.7%.

And the viability, T/C [24]?
The viability, T/C was 31.9%.

And the viability, T/C [25]?
Its viability, T/C is 33.3%.

What about the viability, T/C [26] of the same compound?
Its viability, T/C is 34.9%.

And the viability, T/C [27]?
The viability, T/C was 36.8%.

And the viability, T/C [28]?
The viability, T/C was 34.6%.

What about the viability, T/C [29] of the same compound?
Its viability, T/C is 34.9%.

And the viability, T/C [30]?
Its viability, T/C is 33.1%.
